Drawing on ChEMBL document CHEMBL1158165, “Correlation between reduction potentials and inhibitions of Epstein-Barr virus activation by anthraquinone derivatives” (Bioorg Med Chem Lett, 2008), this text covers logIC50, viability and Activity for 34 compounds.

What all share (assay type): cell-based
Data set [1] concerns Raji. Kind of data set: Inhibition of 12-O-tetradecanoylphorbol-13-acetate induced EBV-early antigen activation in human Raji cells. The settings on record: human gammaherpesvirus 4.
Data set [2] in a line: Cytotoxicity against human Raji cells assessed as cell viability at 1000 molar ratio. The settings on record: read-out: Activity.
Data set [3] has as its system Raji. Kind of data set: Inhibition of 12-O-tetradecanoylphorbol-13-acetate induced EBV-early antigen activation in human Raji cells at 1000 molar ratio relative to control. Details: scale not given: the % may be the effect or the level left. Conditions: human gammaherpesvirus 4.
Data set [4] has as its system Raji. Kind of data set: Inhibition of 12-O-tetradecanoylphorbol-13-acetate induced EBV-early antigen activation in human Raji cells at 500 molar ratio relative to control. On the set-up: scale not given: the % may be the effect or the level left. Conditions: human gammaherpesvirus 4.
The subject of data set [5] is Raji. Kind of data set: Inhibition of 12-O-tetradecanoylphorbol-13-acetate induced EBV-early antigen activation in human Raji cells at 100 molar ratio relative to control. On the set-up: scale not given: the % may be the effect or the level left. The settings on record: human gammaherpesvirus 4.
In data set [6] the test system is Raji. The experiment in a line: Inhibition of 12-O-tetradecanoylphorbol-13-acetate induced EBV-early antigen activation in human Raji cells at 10 molar ratio relative to control. On the set-up: scale not given: the % may be the effect or the level left. The settings on record: human gammaherpesvirus 4.

`O=C1c2ccccc2C(=O)c2ccccc21` displayed a logIC50 in the data set on Raji [1] of 3.04.
`O=C1c2ccccc2C(=O)c2c(O)cccc21` yielded a logIC50 with Raji [1] of 2.77.
In the data set with Raji [1], `COc1cc(O)c2c(c1)C(=O)c1cc(C)cc(O)c1C2=O` [PHYSCION] registered a logIC50 of 2.5. Besides, the viability at 1000 molar ratio in data set [2] was 60%. For the same compound, the Activity was 1.5% with Raji [3], 24.7% in the data set with Raji [4], 51.1% in the data set with Raji [5] and 94.2% in the data set on Raji [6].
For the compound `COc1cc(C)cc2c1C(=O)c1c(O)cccc1C2=O`, the logIC50 in the data set on Raji [1] amounted to 2.82.
For the compound `COc1cc(OC)c2c(c1)C(=O)c1cc(C)cc(O)c1C2=O`, the logIC50 in the data set with Raji [1] came to 2.5. Moreover, the viability at 1000 molar ratio in data set [2] was 60%. The Activity in the data set with Raji [3] amounted to 2.9%; with Raji [4] it was 24.2%; in the data set on Raji [5], 51.7%; in the data set with Raji [6], 94.7%.
Turning to `O=C1c2cccc(O)c2C(=O)c2c(O)cccc21`, in the data set with Raji [1], the logIC50 worked out at 2.78.
In the case of `COc1cc(OC)c2c(c1)C(=O)c1cc(C)cc(OC)c1C2=O`, the logIC50 with Raji [1] was determined as 2.41. In addition, the viability at 1000 molar ratio in data set [2] was 60%. For the same compound, the Activity with Raji [3] is 0%; in the data set on Raji [4], 21.1%; in the data set with Raji [5], 44%; in the data set on Raji [6] it was 90.1%.
For `Cc1cc(O)c2c(c1)C(=O)c1cc(O)cc(O)c1C2=O` [EMODIN], the logIC50 in the data set with Raji [1] amounted to 2.48. Further, the viability at 1000 molar ratio in data set [2] came out at 70%. In addition, the Activity in the data set with Raji [3] worked out at 1.5%; in the data set on Raji [4] it was 24.8%; in the data set on Raji [5], 51.6%; in the data set on Raji [6], 91%.
With `COc1c(O)c(C)cc2c1C(=O)c1c(O)cccc1C2=O` [OBTUSIFOLIN], in the data set on Raji [1], the logIC50 worked out at 2.55. The viability at 1000 molar ratio in data set [2] turned out to be 60%. Further, the Activity turned out to be 4.3% in the data set with Raji [3], 27.8% in the data set on Raji [4], 54.9% in the data set with Raji [5] and 98.7% with Raji [6].
As to `Cc1ccc2c(c1O)C(=O)c1ccccc1C2=O`, the logIC50 in the data set with Raji [1] was 2.72.
Same read-out and setting: then `COc1cc2c(c(OC)c1OC)C(=O)c1c(cc(C)c(O)c1OC)C2=O`, with 2.73; and `Cc1ccc2c(c1)C(=O)c1ccccc1C2=O`, with 2.66.
For `O=C1c2cccc(O)c2C(=O)c2c1cc(CO)c(-c1c(CO)cc3c(c1O)C(=O)c1c(O)cccc1C3=O)c2O`, the logIC50 in the data set on Raji [1] is 2.78.
Compound `COc1cc2c(c(O)c1OC)C(=O)c1c(cc(C)c(O)c1OC)C2=O` yielded a logIC50 with Raji [1] of 2.73.
With `O=C1c2ccc(O)cc2C(=O)c2ccc(O)cc21`, the logIC50 with Raji [1] amounted to 2.88.
In the data set on Raji [1], `COc1cc2c(c(O)c1C)C(=O)c1c(O)cc(C)cc1C2=O` registered a logIC50 of 2.48. For the same compound, the viability at 1000 molar ratio in data set [2] amounted to 60%. Besides, the Activity was determined as 1.2% in the data set on Raji [3], 23.2% in the data set on Raji [4], 50% in the data set with Raji [5] and 93% with Raji [6].
Compound `CC(=O)Oc1cc(OC(C)=O)c2c(c1)C(=O)c1cc(C)cc(OC(C)=O)c1C2=O` showed a logIC50 in the data set with Raji [1] of 2.67.
On the same count and under the same terms, then `Cc1cc(O)c2c(c1)C(=O)c1cc(CO)c(-c3c(O)cc4c(c3O)C(=O)c3c(O)cccc3C4=O)c(O)c1C2=O`, with 2.8.
Turning to `COc1cc(O)cc2c1C(=O)c1c(O)cc(C)cc1C2=O` [QUESTIN], the logIC50 in the data set on Raji [1] was found to be 2.52. For the same compound, in data set [2], the viability at 1000 molar ratio was determined as 60%. The Activity amounted to 3.7% in the data set on Raji [3], 25.6% in the data set with Raji [4], 52.8% with Raji [5] and 95.6% in the data set on Raji [6].
In the data set on Raji [1], `CC(=O)Oc1cc(O)cc2c1C(=O)c1c(O)cc(C)cc1C2=O` came in with a logIC50 of 2.69.
The same measure, in the same setting: the same measure for `CC(=O)Oc1cc(OC(C)=O)c2c(c1)C(=O)c1cc(C(=O)O)cc(OC(C)=O)c1C2=O`: 2.66; for `CCc1ccc2c(c1)C(=O)c1ccccc1C2=O`: 2.7; for `COc1cc2c(c(OC)c1O)C(=O)c1c(ccc(C)c1O)C2=O`: 2.55.
On the same count and under the same terms, then `CC(=O)Oc1cc(C)cc2c1C(=O)c1c(OC(C)=O)cc(O)cc1C2=O`, with 2.7.
Same read-out and setting: the same measure for `Cc1cc2c(c(O)c1-c1c(C)cc3c(c1O)C(=O)c1c(O)cc(O)cc1C3=O)C(=O)c1c(O)cc(O)cc1C2=O`: 2.7; for `COc1c(O)cc2c(c1O)C(=O)c1c(cc(C)c(O)c1OC)C2=O`: 2.72.
`COc1cc(C)cc2c1C(=O)c1c(OC)cc(O)cc1C2=O` displayed a logIC50 in the data set with Raji [1] of 2.45. Further, in data set [2], the viability at 1000 molar ratio was found to be 60%. In addition, the Activity was found to be 0% with Raji [3], 22% in the data set with Raji [4], 47.3% in the data set on Raji [5] and 92.6% with Raji [6].
`COc1cc(C)cc2c1C(=O)c1c(O)cc(O)cc1C2=O` [1-O-METHYLEMODIN] returned a logIC50 in the data set on Raji [1] of 2.49. Further, the viability at 1000 molar ratio in data set [2] was 60%. Also, the Activity with Raji [3] was 1.1%; with Raji [4], 24.1%; in the data set with Raji [5], 49.8%; with Raji [6] it was 94.1%.
`Cc1cc2c(c(O)c1-c1c(C)cc3c(c1O)C(=O)c1c(O)cc(O)cc1C3=O)C(=O)c1c(O)cccc1C2=O` registered a logIC50 in the data set on Raji [1] of 2.8.
Same read-out and setting: the same measure for `Cc1cc(O)c2c(c1)C(=O)c1cccc(O)c1C2=O`: 2.68; for `Cc1cc(O)c2c(c1)C(=O)c1cc(O)c(-c3c(C)cc4c(c3O)C(=O)c3c(O)cccc3C4=O)c(O)c1C2=O`: 2.83; for `O=C1c2cccc(O)c2C(=O)c2c(O)cc(CO)cc21`: 2.66.
In the data set with Raji [1], `COc1cc(O)c2c(c1)C(=O)c1cc(C)cc(OC)c1C2=O` came in with a logIC50 of 2.43. The viability at 1000 molar ratio in data set [2] is 60%. The Activity with Raji [3] is 0%; in the data set on Raji [4] it was 21.3%; in the data set with Raji [5], 45.3%; in the data set on Raji [6], 91.8%.
Turning to `Cc1cc2c(c(O)c1-c1c(C)cc3c(c1O)C(=O)c1c(O)cccc1C3=O)C(=O)c1c(O)cccc1C2=O`, in the data set on Raji [1], the logIC50 was found to be 2.86.
